What was measured:
[1] = target: T1, 28 CDKs family protein kinases (Homo sapiens, UniProt Q07002); test: In vitro IC50 profile for CDKs family kinase (33PanQinase Activity Assay, ProQinase); type: biochemical; settings: CDK18/CycY; read-out: CDK7 selectivity profile in CDKs family, IC50
T1 construct: purchased ProQinase GmbH; host or cells: Sf9 insect cells or E. coli
Experimental: (§1) The IC50 profile of compound 11 was determined using 28 CDKs family protein kinases through ProQinase GmbH (Freiburg, Germany). All the protocol and materials had been provided by ProQinase GmbH. Briefly, in the process, 90 μl H2O were added to each well of a compound dilution plate. To minimize potential precipitation, the H2O was added to the plate only a few minutes before the transfer of the compound solutions into the assay plates. The plate was shaken thoroughly, resulting in a “compound dilution plate/10% DMSO”. The compound dilution plate(s) were discarded at the end of the working day. For the assays (see below), 5 μl solution from each well of the compound dilution plate were transferred into the assay plates. The final volume of the assay was 50 μl. All compounds were tested at 10 final assay concentrations in the range from 1×10^−05 M to 3×10^−10 M. The final DMSO concentration in the reaction cocktails was 1% in all cases. All protein kinases provided by ProQinase were expressed in Sf9 insect cells or in E. coli as recombinant GST-fusion proteins or His-tagged proteins, either as full-length or enzymatically active fragments. All kinases were produced from human cDNAs and purified by either GSH affinity chromatography or immobilized metal affinity chromatography. The purity of the protein kinases was examined by SDS-PAGE/Coomassie staining, the identity was checked by mass spectroscopy. Kinases from external vendors, Carna Biosciences Inc.; Invitrogen Corp.; and Millipore Corp., were expressed, purified and quality-controlled by virtue of the vendors readings. A radiometric protein kinase assay (33PanQinase® Activity Assay) was used for measuring the kinase activity of the 28 protein kinases. All kinase assays were performed in 96-well FlashPlates™ from PerkinElmer (Boston, MA, USA) in a 50 μl reaction volume. The reaction cocktails were incubated at 30° C. for 60 minutes. The reaction was stopped with 50 μl of 2% (v/v) H3PO4, plates were aspirated and washed two times with 200 μl 0.9% (w/v) NaCl. Incorporation of ^33Pi was determined with a microplate scintillation counter (Microbeta, Wallac). All assays were performed with a BeckmanCoulter/SAGIAN™ Core System. As part of the data evaluation the low control value from a particular plate was subtracted from the high control value as well as from all 80 “compound values” of the corresponding plate. The residual activity (in %) for each well of a particular plate was calculated by using the following formula: Res. Activity (%)=100×[(cpm of compound−low control)/(high control−low control)].

[2] = target: T2, 28 CDKs family protein kinases (Homo sapiens, UniProt Q00536); test: as above; type: biochemical; settings: CDK16/CycY; read-out: CDK7 selectivity profile in CDKs family, IC50
T2 construct: purchased ProQinase GmbH; host or cells: Sf9 insect cells or E. coli
Experimental: as §1

[3] = target: T3, 28 CDKs family protein kinases (Homo sapiens, UniProt P50613); test: as above; type: biochemical; settings: CDK7/CycH/MAT1; read-out: CDK7 selectivity profile in CDKs family, IC50
T3 construct: purchased ProQinase GmbH; host or cells: Sf9 insect cells or E. coli
Experimental: as §1

CDK5/p25 = target: T4, CDK5/p25 (Homo sapiens, UniProt Q00535); test: Enzymatic assay for CDK5 (LANCE Ultra kinase assay, FRET based); type: biochemical; settings: ATP at Km
T4 construct: purchased Invitrogen PR8543B
Outline: (§2)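 TR-FRET kinase assay at ATP Km with ULight-MBP peptide (68 nM) and Eu-anti-phospho-MBP antibody; CDK2/Cyclin A at […], CDK5/p25 at […]. 8-dose 4-fold compound dilutions; 60 min kinase reaction at 23° C., EDTA stop, 60 min detection, read at 615/665 nm.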

MV4-11 = test: Cellular MV4-11 viability assay (CellTiter-Glo, 72 hours); type: cell-based; settings: Homo sapiens; MV4-11 cells
Outline: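 CellTiter-Glo luminescence measured viability after 72 h of compound exposure (0.0015–10 uM; DMSO below 0.1%) at 37 °C, 5% CO2, run in duplicate. Dosing began 24 h post-seeding in RPMI-1640/10% FBS at 1×10^4 (MV4-11), 5×10^3 (OVCAR-3) or 1×10^3 (A2780) cells/well.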

CDK2/Cyclin A = target: T5, CDK2/Cyclin A (Homo sapiens, UniProt P24941); test: Enzymatic assay for CDK2 (LANCE Ultra kinase assay, FRET based); type: biochemical; settings: ATP at Km
T5 construct: purchased Invitrogen PV6290
Outline: as §2

T1 sequence (Q07002 whole entry): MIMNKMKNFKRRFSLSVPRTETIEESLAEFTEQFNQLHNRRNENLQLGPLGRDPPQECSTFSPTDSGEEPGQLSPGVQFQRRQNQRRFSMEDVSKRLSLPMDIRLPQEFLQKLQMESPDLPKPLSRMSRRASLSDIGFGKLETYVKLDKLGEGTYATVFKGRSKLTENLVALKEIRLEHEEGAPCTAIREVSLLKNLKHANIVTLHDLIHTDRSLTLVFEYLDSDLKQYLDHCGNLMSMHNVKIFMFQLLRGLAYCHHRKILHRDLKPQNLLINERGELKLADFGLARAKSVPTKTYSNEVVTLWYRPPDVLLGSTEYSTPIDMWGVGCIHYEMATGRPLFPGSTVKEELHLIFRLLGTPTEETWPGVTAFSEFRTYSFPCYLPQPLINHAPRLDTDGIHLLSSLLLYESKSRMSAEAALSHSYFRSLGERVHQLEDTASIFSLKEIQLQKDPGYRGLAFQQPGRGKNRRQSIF
T1 sequence (Q8ND76 whole entry partner): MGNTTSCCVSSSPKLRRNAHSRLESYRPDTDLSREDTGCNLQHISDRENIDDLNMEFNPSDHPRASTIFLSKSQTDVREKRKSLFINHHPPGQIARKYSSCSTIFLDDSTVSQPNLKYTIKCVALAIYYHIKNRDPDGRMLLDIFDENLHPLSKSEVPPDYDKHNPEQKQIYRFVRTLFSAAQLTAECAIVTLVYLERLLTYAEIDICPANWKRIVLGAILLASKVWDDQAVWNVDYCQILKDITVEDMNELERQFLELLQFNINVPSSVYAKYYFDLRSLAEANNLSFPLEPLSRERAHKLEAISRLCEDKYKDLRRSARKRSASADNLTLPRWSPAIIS
T4 sequence (Q00535 whole entry): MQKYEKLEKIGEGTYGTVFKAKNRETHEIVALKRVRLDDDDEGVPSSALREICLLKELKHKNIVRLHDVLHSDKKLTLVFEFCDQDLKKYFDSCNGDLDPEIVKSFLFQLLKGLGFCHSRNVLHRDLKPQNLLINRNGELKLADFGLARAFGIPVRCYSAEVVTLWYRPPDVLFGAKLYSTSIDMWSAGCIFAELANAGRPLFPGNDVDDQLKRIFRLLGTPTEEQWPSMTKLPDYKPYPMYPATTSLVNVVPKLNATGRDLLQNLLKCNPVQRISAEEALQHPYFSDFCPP
T4 sequence (Q15078 99-307 partner limits assumed): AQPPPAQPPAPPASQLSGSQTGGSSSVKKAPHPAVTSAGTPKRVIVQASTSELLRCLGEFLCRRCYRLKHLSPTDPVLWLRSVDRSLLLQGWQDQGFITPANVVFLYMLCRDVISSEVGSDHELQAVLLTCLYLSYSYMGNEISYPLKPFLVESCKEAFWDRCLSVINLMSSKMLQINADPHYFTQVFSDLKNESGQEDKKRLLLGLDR
T3 sequence (P50613 whole entry): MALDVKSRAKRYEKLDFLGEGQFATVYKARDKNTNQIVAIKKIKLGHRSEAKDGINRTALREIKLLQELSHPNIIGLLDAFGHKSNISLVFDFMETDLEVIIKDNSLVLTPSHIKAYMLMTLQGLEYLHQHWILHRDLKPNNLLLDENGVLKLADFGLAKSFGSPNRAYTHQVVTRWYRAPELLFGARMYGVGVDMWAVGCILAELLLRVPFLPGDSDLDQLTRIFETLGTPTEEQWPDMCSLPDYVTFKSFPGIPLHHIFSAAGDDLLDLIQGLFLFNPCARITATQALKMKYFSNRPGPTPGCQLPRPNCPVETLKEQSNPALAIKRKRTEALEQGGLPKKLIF
T3 sequence (P51946 whole entry partner): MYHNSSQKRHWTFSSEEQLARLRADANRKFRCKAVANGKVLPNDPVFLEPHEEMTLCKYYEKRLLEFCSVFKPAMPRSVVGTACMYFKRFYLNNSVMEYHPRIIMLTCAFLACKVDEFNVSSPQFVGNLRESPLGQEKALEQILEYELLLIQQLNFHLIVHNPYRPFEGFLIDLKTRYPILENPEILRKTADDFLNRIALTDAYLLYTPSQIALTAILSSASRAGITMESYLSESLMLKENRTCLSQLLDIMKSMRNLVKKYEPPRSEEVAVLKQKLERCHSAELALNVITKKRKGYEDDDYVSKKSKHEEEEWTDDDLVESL
T3 sequence (P51948 whole entry partner): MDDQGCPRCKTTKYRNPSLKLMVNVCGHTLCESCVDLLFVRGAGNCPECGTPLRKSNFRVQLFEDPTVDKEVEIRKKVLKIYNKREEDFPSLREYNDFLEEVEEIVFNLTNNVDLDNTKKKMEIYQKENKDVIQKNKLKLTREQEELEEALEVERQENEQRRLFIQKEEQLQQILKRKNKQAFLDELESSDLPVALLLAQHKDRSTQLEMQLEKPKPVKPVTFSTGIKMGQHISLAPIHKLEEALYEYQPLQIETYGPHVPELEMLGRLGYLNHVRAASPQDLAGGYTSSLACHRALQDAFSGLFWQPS
T2 sequence (Q00536 whole entry): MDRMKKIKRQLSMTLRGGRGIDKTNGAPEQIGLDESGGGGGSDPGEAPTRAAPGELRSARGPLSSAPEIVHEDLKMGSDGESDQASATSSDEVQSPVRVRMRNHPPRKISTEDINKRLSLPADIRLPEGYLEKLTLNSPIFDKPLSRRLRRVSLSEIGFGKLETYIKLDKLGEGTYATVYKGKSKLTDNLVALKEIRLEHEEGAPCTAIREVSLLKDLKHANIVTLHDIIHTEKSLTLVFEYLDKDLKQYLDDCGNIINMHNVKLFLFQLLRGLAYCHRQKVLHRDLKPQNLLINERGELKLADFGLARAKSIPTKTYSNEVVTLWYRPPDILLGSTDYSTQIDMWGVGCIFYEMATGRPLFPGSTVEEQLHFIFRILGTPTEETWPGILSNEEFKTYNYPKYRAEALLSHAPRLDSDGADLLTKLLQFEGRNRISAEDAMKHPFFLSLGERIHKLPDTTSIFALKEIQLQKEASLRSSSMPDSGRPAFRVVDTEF
T2 sequence (Q8ND76 whole entry partner): as the sequence (Q8ND76 whole entry partner) above

## CC(C)c1cnn2c(NCc3ccccc3-c3nccc4cc(NC(=O)/C=C/CN(C)C)ccc34)nc(N3CCC(N)CC3)nc12 [Compound 11]
[1]
  IC50: > 10000 nM
[2]
  IC50: > 10000 nM
[3]
  IC50: 25 nM
CDK5/p25
  IC50: > 1000 nM
MV4-11
  IC50: < 1000 nM
CDK2/Cyclin A
  IC50: > 1000 nM

— patent publication US12606561B2, “Substituted pyrazolo[1,5-a][1,3,5]triazines as CDK inhibitors” (QURIENT CO., LTD., priority 2018, dated 2026)
